Measurements from article PMC6211260 (Journal of Enzyme Inhibition and Medicinal Chemistry, 2018).
Read-outs that look alike come from different tables or passages of the source.

Columns and labels:
[1] = target: T1, JNK2 (Homo sapiens, UniProt P45984); assay: In vitro kinase screening (Kinase HotSpot); format: biochemical; conditions: single dose of 10 µM
T1 construct: purchased Reaction Biology Corp
Excerpt: (§1) To investigate the biological target of compound, Reaction Biology Corp. Kinase HotSpotSM service was used adopting standard assay protocol.

[2] = target: T2, ABL1 (T315I) (Homo sapiens, UniProt P00519, T315I); assay: In vitro kinase screening (Kinase HotSpot); format: biochemical; conditions: single dose of 10 µM
T2 construct: purchased Reaction Biology Corp
Excerpt: as §1

[3] = target: T3, GSK3b (Homo sapiens, UniProt P49841); assay: In vitro kinase screening (Kinase HotSpot); format: biochemical; conditions: single dose of 10 µM
T3 construct: purchased Reaction Biology Corp
Excerpt: as §1

[4] = target: T4, IKKb/IKBKB (Homo sapiens, UniProt O14920); assay: In vitro kinase screening (Kinase HotSpot); format: biochemical; conditions: single dose of 10 µM
T4 construct: purchased Reaction Biology Corp
T4 sequence (O14920 1-756): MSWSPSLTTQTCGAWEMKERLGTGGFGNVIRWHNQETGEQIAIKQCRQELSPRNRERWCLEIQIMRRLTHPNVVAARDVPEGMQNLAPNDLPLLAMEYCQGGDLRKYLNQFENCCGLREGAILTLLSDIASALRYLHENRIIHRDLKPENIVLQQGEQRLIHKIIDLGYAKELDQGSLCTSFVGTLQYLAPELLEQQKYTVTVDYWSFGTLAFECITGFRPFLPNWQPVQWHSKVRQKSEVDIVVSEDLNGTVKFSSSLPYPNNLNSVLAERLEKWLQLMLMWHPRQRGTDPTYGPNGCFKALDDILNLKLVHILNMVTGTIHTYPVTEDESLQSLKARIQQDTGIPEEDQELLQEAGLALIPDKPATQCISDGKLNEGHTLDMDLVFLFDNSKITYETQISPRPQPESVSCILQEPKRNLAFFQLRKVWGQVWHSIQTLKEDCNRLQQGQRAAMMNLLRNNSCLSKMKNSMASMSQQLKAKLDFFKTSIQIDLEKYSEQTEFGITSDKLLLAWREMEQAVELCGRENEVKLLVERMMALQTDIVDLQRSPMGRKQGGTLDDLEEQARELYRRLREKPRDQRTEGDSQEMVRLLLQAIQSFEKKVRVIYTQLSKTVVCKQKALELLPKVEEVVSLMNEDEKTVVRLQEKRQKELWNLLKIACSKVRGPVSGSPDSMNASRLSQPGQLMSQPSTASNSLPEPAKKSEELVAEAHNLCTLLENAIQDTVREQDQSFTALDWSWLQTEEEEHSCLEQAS
Excerpt: as §1

[5] = target: T5, P38a/MAPK14 (Homo sapiens, UniProt Q16539); assay: In vitro kinase screening (Kinase HotSpot); format: biochemical; conditions: single dose of 10 µM, P38a/MAPK14
T5 construct: purchased Reaction Biology Corp
Excerpt: as §1

[6] = target: T6, CDK2/cyclin E (Homo sapiens, UniProt P24941); assay: In vitro kinase screening (Kinase HotSpot); format: biochemical; conditions: single dose of 10 µM
T6 construct: purchased Reaction Biology Corp
Excerpt: as §1

[7] = target: T7, JNK3 (Homo sapiens, UniProt P53779); assay: In vitro kinase screening (Kinase HotSpot); format: biochemical; conditions: single dose of 10 µM
T7 construct: purchased Reaction Biology Corp
Excerpt: as §1

[8] = target: T8, BRAF (Homo sapiens, UniProt P15056); assay: In vitro kinase screening (Kinase HotSpot); format: biochemical; conditions: single dose of 10 µM
T8 construct: purchased Reaction Biology Corp
Excerpt: as §1

[9] = target: T9, JNK1 (Homo sapiens, UniProt P45983); assay: In vitro kinase screening (Kinase HotSpot); format: biochemical; conditions: single dose of 10 µM
T9 construct: purchased Reaction Biology Corp
Excerpt: as §1

[10] = target: T10, BRAF (V600E) (Homo sapiens, UniProt P15056, V600E); assay: In vitro kinase screening (Kinase HotSpot); format: biochemical; conditions: single dose of 10 µM, BRAF (V599E) in Table 6, BRAF (V600E) in text
T10 construct: purchased Reaction Biology Corp
Excerpt: as §1

[11] = target: T11, EGFR (Homo sapiens, UniProt P00533); assay: In vitro kinase screening (Kinase HotSpot); format: biochemical; conditions: single dose of 10 µM
T11 construct: purchased Reaction Biology Corp
Excerpt: as §1

[12] = test system: non-small cell lung cancer cell lines; assay: NCI five-dose testing, subpanel mean; format: cell-based; conditions: subpanel II: non-small cell lung cancer
Experimental: (§2) Screening against the cancer cell lines was carried out at the National Cancer Institute (NCI, Bethesda, Maryland, USA) applying the standard protocol of the NCI[22].

[13] = test system: renal cancer cell lines; assay: NCI five-dose testing, subpanel mean; format: cell-based; conditions: subpanel VII: renal cancer
Experimental: as §2

[14] = test system: melanoma cell lines; assay: NCI five-dose testing, subpanel mean; format: cell-based; conditions: subpanel V: melanoma
Experimental: as §2

[15] = test system: breast cancer cell lines; assay: NCI five-dose testing, subpanel mean; format: cell-based; conditions: subpanel IX: breast cancer
Experimental: as §2

[16] = test system: CNS cancer cell lines; assay: NCI five-dose testing, subpanel mean; format: cell-based; conditions: subpanel IV: CNS cancer
Experimental: as §2

[17] = test system: Leukaemia cell lines; assay: NCI five-dose testing, subpanel mean; format: cell-based; conditions: subpanel I: Leukaemia
Experimental: as §2

[18] = test system: ovarian cancer cell lines; assay: NCI five-dose testing, subpanel mean; format: cell-based; conditions: subpanel VI: ovarian cancer
Experimental: as §2

[19] = test system: colon cancer cell lines; assay: NCI five-dose testing, subpanel mean; format: cell-based; conditions: subpanel III: colon cancer
Experimental: as §2

[20] = test system: prostate cancer cell lines; assay: NCI five-dose testing, subpanel mean; format: cell-based; conditions: subpanel VIII: prostate cancer
Experimental: as §2

[21] = test system: MDA-MB-468 breast cancer cell line; assay: NCI five-dose testing; format: cell-based; conditions: for IC (TGI): read-out: TGI (total growth inhibition concentration)
Experimental: as §2

[22] = test system: PC-3 prostate cancer cell line; assay: NCI five-dose testing; format: cell-based; conditions: for IC50: read-out: IC50; for IC (TGI): read-out: TGI (total growth inhibition concentration)
Experimental: as §2

[23] = test system: OVCAR-4 ovarian cancer cell line; assay: NCI five-dose testing; format: cell-based; conditions: for IC (TGI): read-out: TGI (total growth inhibition concentration)
Experimental: as §2

[24] = test system: A498 renal cancer cell line; assay: NCI five-dose testing; format: cell-based; conditions: for IC (TGI): read-out: TGI (total growth inhibition concentration)
Experimental: as §2

[25] = test system: K-562 leukaemia cell line; assay: NCI five-dose testing; format: cell-based; conditions: for IC (TGI): read-out: TGI (total growth inhibition concentration)
Experimental: as §2

[26] = test system: HOP-92 non-small cell lung cancer cell line; assay: NCI five-dose testing; format: cell-based; conditions: for IC (TGI): read-out: TGI (total growth inhibition concentration)
Experimental: as §2

[27] = test system: SK-MEL-5 melanoma cell line; assay: NCI five-dose testing; format: cell-based; conditions: for IC (TGI): read-out: TGI (total growth inhibition concentration)
Experimental: as §2

[28] = test system: U251 CNS cancer cell line; assay: NCI five-dose testing; format: cell-based; conditions: for IC50: read-out: IC50; for IC (TGI): read-out: TGI (total growth inhibition concentration)
Experimental: as §2

[29] = test system: HT-29 colon cancer cell line; assay: NCI five-dose testing; format: cell-based; conditions: for IC50: read-out: IC50; for IC (TGI): read-out: TGI (total growth inhibition concentration)
Experimental: as §2

[30] = test system: NCI-60 cell line panel; assay: NCI-60 single-dose (10 µM) antiproliferative screening, mean over panel; format: cell-based; conditions: single-dose 10 µM
Experimental: as §2
(§3) The final target compounds were submitted to the National Cancer Institute (NCI), Maryland, USA[23]. Thirty-one compounds were selected to be tested over 60 cell lines at single dose 10 µM.

[31] = test system: HT29 colon cancer cell line; assay: NCI-60 single-dose screening; format: cell-based; conditions: 10 µM
Experimental: as §2, §3

[32] = test system: Colo 205 colon cancer cell line; assay: NCI-60 single-dose screening; format: cell-based; conditions: 10 µM
Experimental: as §2, §3

[33] = test system: SK-MEL-5 melanoma cell line; assay: NCI-60 single-dose screening; format: cell-based; conditions: 10 µM
Experimental: as §2, §3

T5 sequence (Q16539 whole entry): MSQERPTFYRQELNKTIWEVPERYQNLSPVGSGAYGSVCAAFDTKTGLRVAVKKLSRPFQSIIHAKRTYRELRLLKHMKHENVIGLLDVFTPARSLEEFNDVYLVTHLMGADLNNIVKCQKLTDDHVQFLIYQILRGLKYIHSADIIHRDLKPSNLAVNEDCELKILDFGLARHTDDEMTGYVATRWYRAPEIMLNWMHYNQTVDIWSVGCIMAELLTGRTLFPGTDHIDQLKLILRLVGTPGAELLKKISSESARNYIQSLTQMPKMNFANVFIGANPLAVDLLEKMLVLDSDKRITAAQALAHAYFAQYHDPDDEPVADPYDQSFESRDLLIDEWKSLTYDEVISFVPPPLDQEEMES
T9 sequence (P45983 whole entry): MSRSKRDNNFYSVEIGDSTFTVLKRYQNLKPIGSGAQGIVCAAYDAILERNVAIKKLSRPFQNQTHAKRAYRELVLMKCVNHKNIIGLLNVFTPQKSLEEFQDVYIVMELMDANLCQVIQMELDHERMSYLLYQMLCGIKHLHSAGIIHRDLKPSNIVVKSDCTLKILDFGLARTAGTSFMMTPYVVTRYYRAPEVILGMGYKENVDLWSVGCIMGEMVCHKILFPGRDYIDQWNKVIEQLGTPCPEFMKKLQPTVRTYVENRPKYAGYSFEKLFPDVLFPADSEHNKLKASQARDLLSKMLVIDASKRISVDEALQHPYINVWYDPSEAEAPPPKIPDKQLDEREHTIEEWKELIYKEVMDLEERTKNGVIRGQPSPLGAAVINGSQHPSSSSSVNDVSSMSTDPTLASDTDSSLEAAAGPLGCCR
T1 sequence (P45984 whole entry): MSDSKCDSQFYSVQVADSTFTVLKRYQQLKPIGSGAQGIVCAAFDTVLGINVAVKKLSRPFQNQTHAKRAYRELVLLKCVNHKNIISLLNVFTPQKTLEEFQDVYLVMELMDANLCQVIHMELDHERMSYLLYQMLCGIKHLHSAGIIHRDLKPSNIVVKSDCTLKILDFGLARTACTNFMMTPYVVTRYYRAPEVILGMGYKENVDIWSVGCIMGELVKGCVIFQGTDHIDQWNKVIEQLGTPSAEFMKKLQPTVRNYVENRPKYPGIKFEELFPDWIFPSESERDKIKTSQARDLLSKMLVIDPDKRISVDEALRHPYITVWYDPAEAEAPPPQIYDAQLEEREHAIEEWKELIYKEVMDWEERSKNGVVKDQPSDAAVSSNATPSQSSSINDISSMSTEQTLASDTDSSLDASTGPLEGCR
T11 sequence (P00533 25-1210): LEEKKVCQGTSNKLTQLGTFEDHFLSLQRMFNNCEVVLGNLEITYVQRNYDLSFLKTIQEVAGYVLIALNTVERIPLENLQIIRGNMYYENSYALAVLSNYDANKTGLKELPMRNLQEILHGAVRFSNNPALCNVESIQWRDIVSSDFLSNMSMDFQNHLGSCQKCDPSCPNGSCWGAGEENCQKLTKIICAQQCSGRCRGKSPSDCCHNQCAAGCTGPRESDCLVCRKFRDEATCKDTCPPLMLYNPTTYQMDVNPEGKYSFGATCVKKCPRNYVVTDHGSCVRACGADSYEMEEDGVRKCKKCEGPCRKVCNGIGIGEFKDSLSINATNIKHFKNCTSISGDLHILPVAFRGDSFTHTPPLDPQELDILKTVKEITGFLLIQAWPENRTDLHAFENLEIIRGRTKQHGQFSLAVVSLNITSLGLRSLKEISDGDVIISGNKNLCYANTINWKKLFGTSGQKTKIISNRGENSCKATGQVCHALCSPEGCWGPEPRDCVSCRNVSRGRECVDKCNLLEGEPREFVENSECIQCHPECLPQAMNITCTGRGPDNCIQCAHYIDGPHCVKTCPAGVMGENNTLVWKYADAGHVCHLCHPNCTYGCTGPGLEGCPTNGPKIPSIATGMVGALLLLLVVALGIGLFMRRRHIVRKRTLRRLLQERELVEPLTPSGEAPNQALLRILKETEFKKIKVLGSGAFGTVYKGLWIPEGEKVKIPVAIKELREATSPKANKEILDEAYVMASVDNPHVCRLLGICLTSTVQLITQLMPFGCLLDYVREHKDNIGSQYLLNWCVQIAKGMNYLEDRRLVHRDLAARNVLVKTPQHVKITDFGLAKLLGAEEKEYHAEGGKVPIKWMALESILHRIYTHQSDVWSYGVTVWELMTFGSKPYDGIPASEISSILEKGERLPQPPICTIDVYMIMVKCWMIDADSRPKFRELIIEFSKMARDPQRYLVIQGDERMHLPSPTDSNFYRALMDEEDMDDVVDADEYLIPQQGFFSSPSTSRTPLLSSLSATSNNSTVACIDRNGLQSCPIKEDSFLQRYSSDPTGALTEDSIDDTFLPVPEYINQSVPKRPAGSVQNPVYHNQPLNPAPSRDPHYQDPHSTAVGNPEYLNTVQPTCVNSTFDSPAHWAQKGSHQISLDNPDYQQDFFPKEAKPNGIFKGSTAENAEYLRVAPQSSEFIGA
T8 sequence (P15056 whole entry): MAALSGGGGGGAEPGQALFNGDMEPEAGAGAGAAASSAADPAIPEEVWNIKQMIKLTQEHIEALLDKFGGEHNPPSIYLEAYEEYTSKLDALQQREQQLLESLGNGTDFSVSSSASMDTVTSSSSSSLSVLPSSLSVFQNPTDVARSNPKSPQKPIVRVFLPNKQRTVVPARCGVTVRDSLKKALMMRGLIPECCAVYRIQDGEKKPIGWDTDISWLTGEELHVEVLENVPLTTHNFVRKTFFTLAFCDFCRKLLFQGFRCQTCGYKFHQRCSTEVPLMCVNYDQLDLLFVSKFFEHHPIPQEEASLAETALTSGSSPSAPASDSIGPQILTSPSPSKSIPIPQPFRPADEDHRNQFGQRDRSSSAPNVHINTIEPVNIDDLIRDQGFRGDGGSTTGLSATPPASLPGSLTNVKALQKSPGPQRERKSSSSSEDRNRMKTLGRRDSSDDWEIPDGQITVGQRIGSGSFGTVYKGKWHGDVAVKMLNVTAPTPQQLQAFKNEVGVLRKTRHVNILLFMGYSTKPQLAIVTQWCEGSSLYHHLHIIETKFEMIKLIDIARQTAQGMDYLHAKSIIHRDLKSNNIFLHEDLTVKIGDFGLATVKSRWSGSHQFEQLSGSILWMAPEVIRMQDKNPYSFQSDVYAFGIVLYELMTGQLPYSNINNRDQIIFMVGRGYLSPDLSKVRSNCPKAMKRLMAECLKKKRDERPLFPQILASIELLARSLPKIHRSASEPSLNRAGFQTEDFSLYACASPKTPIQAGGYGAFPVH
T10 sequence (P15056 whole entry V600E): as the sequence (P15056 whole entry) above, with V600E counted along it
T3 sequence (P49841 whole entry): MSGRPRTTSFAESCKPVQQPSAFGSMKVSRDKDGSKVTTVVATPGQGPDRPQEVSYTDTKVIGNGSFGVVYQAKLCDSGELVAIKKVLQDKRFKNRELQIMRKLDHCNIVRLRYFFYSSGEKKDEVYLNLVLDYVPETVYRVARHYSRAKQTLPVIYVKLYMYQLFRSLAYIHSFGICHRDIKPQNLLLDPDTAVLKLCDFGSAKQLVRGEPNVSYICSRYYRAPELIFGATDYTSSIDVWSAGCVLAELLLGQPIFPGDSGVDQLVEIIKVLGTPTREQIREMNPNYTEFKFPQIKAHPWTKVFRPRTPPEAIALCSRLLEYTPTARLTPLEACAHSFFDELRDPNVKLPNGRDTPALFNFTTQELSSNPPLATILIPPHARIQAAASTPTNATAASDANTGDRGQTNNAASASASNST
T7 sequence (P53779 whole entry): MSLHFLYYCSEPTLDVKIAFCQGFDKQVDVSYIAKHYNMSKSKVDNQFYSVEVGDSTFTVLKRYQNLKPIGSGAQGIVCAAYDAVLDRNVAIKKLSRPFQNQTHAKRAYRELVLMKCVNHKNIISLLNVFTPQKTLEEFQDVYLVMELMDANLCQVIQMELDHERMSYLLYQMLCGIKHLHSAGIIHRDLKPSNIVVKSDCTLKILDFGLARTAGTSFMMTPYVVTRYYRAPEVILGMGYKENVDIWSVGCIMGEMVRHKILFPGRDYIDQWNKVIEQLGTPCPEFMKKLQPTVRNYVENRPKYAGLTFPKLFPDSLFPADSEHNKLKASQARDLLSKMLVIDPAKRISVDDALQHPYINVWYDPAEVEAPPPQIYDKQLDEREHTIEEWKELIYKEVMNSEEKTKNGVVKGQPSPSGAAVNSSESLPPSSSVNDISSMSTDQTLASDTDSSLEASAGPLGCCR

O=S(=O)(NCCNc1cc(-c2cn(-c3ccccc3)nc2-c2cccc(O)c2)ccn1)c1ccc(Cl)cc1 [Compound 1l, 4-Chloro-N-(2-((4-(3-(3-hydroxyphenyl)-1-phenyl-1H-pyrazol-4-yl)pyridin-2-yl)amino)ethyl) benzenesulfonamide]
Inhibition % [1]: 44.68 ± 0.01%
Inhibition % [2]: 6.39 ± 0.35%
Inhibition % [3]: 15.88 ± 0.21%
Inhibition % [4]: 7.80 ± 0.10%
Inhibition % [5]: 68.43 ± 0.59%
Inhibition % [6]: 8.36 ± 0.95%
Inhibition % [7]: 35.70 ± 0.04%
Inhibition % [8]: 21.28 ± 0.21%
Inhibition % [9]: 53.79 ± 0.04%
Inhibition % [10]: 48.09 ± 0.45%
Inhibition % [11]: 10.33 ± 3.40%
IC50 [12]: 3.16 µM
IC50 [13]: 3.18 µM
IC50 [14]: 2.38 µM
IC50 [15]: 2.48 µM
IC50 [16]: 2.85 µM
IC50 [17]: 2.44 µM
IC50 [18]: 3.29 µM
IC50 [19]: 2.46 µM
IC50 [20]: 3.03 µM
IC50 ([21]; MDA-MB-468): 2.78 µM
LD50 (lethal dose 50) ([21]; MDA-MB-468): >100 µM
IC (TGI) ([21]; MDA-MB-468): 7.66 µM
LD50 (lethal dose 50) ([22]; PC-3): >100 µM
IC50 ([22]; PC-3): 2.45 µM
IC (TGI) ([22]; PC-3): 12.0 µM
IC50 ([23]; OVCAR-4): 4.37 µM
LD50 (lethal dose 50) ([23]; OVCAR-4): >100 µM
IC (TGI) ([23]; OVCAR-4): >100 µM
IC50 ([24]; A498): 2.63 µM
LD50 (lethal dose 50) ([24]; A498): 57.1 µM
IC (TGI) ([24]; A498): 9.5 µM
IC50 ([25]; K-562): 1.98 µM
LD50 (lethal dose 50) ([25]; K-562): >100 µM
IC (TGI) ([25]; K-562): 5.4 µM
IC50 ([26]; HOP-92): 2.34 µM
LD50 (lethal dose 50) ([26]; HOP-92): 70.5 µM
IC (TGI) ([26]; HOP-92): 8.3 µM
IC50 ([27]; SK-MEL-5): 2.02 µM
LD50 (lethal dose 50) ([27]; SK-MEL-5): 7.9 µM
IC (TGI) ([27]; SK-MEL-5): 4.0 µM
LD50 (lethal dose 50) ([28]; U251): 45.9 µM
IC50 ([28]; U251): 3.21 µM
IC (TGI) ([28]; U251): 11.4 µM
LD50 (lethal dose 50) ([29]; HT-29): 61.8 µM
IC50 ([29]; HT-29): 2.24 µM
IC (TGI) ([29]; HT-29): 5.2 µM

COc1cccc(-c2nn(-c3ccccc3)cc2-c2ccnc(NCCCNS(=O)(=O)c3ccc(C(F)(F)F)cc3)c2)c1 [Compound 2g, N-(3-((4-(3-(3-Methoxyphenyl)-1-phenyl-1H-pyrazol-4-yl)pyridin-2-yl)amino)propyl)-4-(trifluoromethyl)benzenesulfonamide]
IC50 [12]: 6.36 µM
IC50 [13]: 5.32 µM
IC50 [14]: 4.94 µM
IC50 [15]: 4.05 µM
IC50 [16]: 5.28 µM
IC50 [17]: 3.35 µM
IC50 [18]: 6.1 µM
IC50 [19]: 4.91 µM
IC50 [20]: 13 µM
inhibition at 10 µM ([30]; 60-cancer cell line screening): 76.5%
number of cell lines with more than 100% inhibition ([30]; NCI-60 panel): 13
per cent inhibition [31]: lethal effect
per cent inhibition [32]: lethal effect
per cent inhibition [33]: lethal effect
IC50 ([21]; Homo sapiens, MDA-MB-468): 3.11 µM
CC50 ([21]; Homo sapiens, MDA-MB-468, read-out: LD50 (lethal dose 50)): > 100 µM
IC (TGI) ([21]; Homo sapiens, MDA-MB-468): > 100 µM
LC50 (lethal concentration 50) ([22]; Homo sapiens, PC-3, read-out: LD50 (lethal dose 50)): > 100 µM
IC50 ([22]; Homo sapiens, PC-3): 3.36 µM
IC (TGI) ([22]; Homo sapiens, PC-3): > 100 µM
IC50 ([23]; Homo sapiens, OVCAR-4): 4.36 µM
LC50 (lethal concentration 50) ([23]; Homo sapiens, OVCAR-4, read-out: LD50 (lethal dose 50)): > 100 µM
IC (TGI) ([23]; Homo sapiens, OVCAR-4): > 100 µM
IC50 ([24]; Homo sapiens, A498): 3.8 µM
LC50 (lethal concentration 50%) ([24]; Homo sapiens, A498, read-out: LD50 (lethal dose 50)): > 100 µM
IC (TGI) ([24]; Homo sapiens, A498): > 100 µM
CC50 ([25]; Homo sapiens, K562, read-out: LD50 (lethal dose 50)): > 100 µM
IC50 ([25]; Homo sapiens, K562, K-562): 3.06 µM
IC (TGI) ([25]; Homo sapiens, K562, K-562): > 100 µM
IC50 ([26]; Homo sapiens, HOP-92): 3.68 µM
IC (TGI) ([26]; Homo sapiens, HOP-92, HOP-92): > 100 µM
LD50 (lethal dose 50) ([26]; Homo sapiens, HOP-92, read-out: LD50 (lethal dose 50)): > 100 µM
IC50 ([27]; Homo sapiens, SK-MEL-5): 2.18 µM
LC50 (lethal concentration 50) ([27]; Homo sapiens, SK-MEL-5, read-out: LD50 (lethal dose 50)): 23.1 µM
IC (TGI) ([27]; Homo sapiens, SK-MEL-5): 5 µM
CC50 ([28]; Homo sapiens, U-251, read-out: LD50 (lethal dose 50)): > 100 µM
IC50 ([28]; Homo sapiens, U-251, U251): 5.63 µM
IC (TGI) ([28]; Homo sapiens, U-251, U251): > 100 µM
CC50 ([29]; Homo sapiens, HT-29, read-out: LD50 (lethal dose 50)): > 100 µM
IC50 ([29]; Homo sapiens, HT-29): 3.21 µM
IC (TGI) ([29]; Homo sapiens, HT-29): 10 µM
